Measured values taken from US20250223412A1, “BLOWING AGENT, FOAMING RESIN COMPOSITION, POLYURETHANE UREA RESIN FOAM, AND PRODUCTION METHOD FOR POLYURETHANE UREA FOAM” (MITSUBISHI GAS CHEMICAL COMPANY, INC., priority 2022, published 2025).

Experiment: Maximum carbon dioxide (CO2) release temperature of amine compound (DSC after CO2 absorption from air)
Type: physicochemical
Details: amine compound with CO2 absorbed (air, 23° C., 50% RH, 24 hours); heating 10° C./minute, 23 to 250° C., nitrogen
Description: A carbon dioxide detector and a Petri dish were placed in an openable desiccator (inner dimension: 370 mm×260 mm×272 mm). Subsequently the amine compound (5 mmol) was added to the Petri dish in the desiccator and the door was immediately closed to leave the amine compound to stand in the desiccator in an air environment at 23° C. and 50% RH for 24 hours. The initial concentration of carbon dioxide was adjusted to about 400 ppm.
Then the amine compound was taken out of the desiccator to give an amine compound with carbon dioxide absorbed. The maximum carbon dioxide release temperature of the amine compound with carbon dioxide absorbed was measured by subjecting the amine compound to DSC as described below. First, differential scanning calorimetry of the amine compound was performed under conditions of a temperature range of 23 to 250° C., a heating rate of 10° C./minute and a nitrogen atmosphere using a differential thermogravimeter (product name DTG-60 made by Shimadzu Corporation). The temperature at which the amount of heat absorbed due to the desorption of carbon dioxide was the maximum was calculated from the DSC curve obtained, and the temperature was determined as the maximum carbon dioxide release temperature of the amine compound.

With `NCC1CCCC(CN)C1` (stereo not shown) [1,3-BAC, 1,3-bis(aminomethyl)cyclohexane] the “Maximum CO2 release temperature” value was 125.7 °C.
For `NCCN` [Ethylenediamine, ethylenediamine], the “Maximum CO2 release temperature” value was 103.4 °C.
For `CC1(C)CC(N)CC(C)(CN)C1` (stereo not shown) [IPDA, isophoronediamine], the “Maximum CO2 release temperature” value was 114.4 °C.
With `NCc1cccc(CN)c1` [MXDA, metaxylylenediamine] the “Maximum CO2 release temperature” value was 135.5 °C.
